Common to all, as to format: in vivo
Series [1] deals with patients exhibiting bronchial asthma. Briefly: Clinical trial A: bronchodilator efficacy compared with placebo and/or Theophylline and with Salbutamol. The source says: Criteria for inclusion are based on medical history and on initial examination. Subjects selected are of either sex, aged between 18 and 60 years, and identified as having a history of bronchial asthma and positive response to inhalation of β2-agonist therapy (e.g. Fenoterol or Salbutamol) or other bronchodilator therapy, e.g. with FEV-1 and/or PEFR increasing by 20% as documented 1 week before commencement of the trial. Baseline of FEV-1 and/or PEFR in each subject entered for the trial should be at least 20% below the predicted value, preferably also at the time of trial. The following exclusion criteria are applied: • - Severe chronic obstructive pulmonary disease, emphysema, active and progressive infection, status asthmaticus during the last 12 months. • - Any serious or chronic illness of the gastrointestinal system, liver or kidneys which may influence absorption, metabolism and excretion of the drugs. • - Diabetes mellitus. • - Any condition which might impair the ability of the physician to evaluate the progress of the patient.
Medication employed for the trial comprises: • A. (±)-COMPOUND (in the form of its bis-hydrogen maleate salt), in dry substance form. For administration the active ingre- ded is dissolved in pharmaceutical grade water, 30 - 60 mins. before ingestion: at a concentration of 1 g/100 ml, for administration at a dosage of 300 mg (30 ml), 200 mg (20 ml) or 100 mg (10 ml); at a concentration of 0.5 g/ 100 ml, for administration at a dosage of 50 mg (10 ml); or at a concentration of 0.25 g/100 ml for administration at a dosage of 25 mg (10 ml). • B. Theophylline solution at a dosage of 150 mg. • C. Placebo - aqueous solution only, no active ingredient. • D. Salbutamol, administered by inhalation in 3 puffs comprising 0.1 mg active ingredient/puff.
The trial is performed for each subject on 2, 3 or more separate days, each trial day being separated by a wash-out period of 3 to 7 days. […]

The subject of series [2] is subjects exhibiting allergic, atopic bronchoconstrictor response. Description: Clinical trial B: prophylactic efficacy compared with placebo (allergen challenge). The conditions noted are these: vs placebo. On the procedure:
Suitable individual dosages, e.g. for (i)-COMPOUND as the bis-hydrogen maleate, in such clinical trials comprise e.g. ca. 1 to 25 mg administered by inhalation (for single administration or administration 2 to 3 daily) or ca. 25 to 100 mg orally (for single administration or administration 2 to 3x daily) up to ca. 200 or 300 mg orally (for single administration).
Both acute (0 to 1 hour) and long-term (up to 12 hour) change in lung function is determined post-medication by measurement of parameters (FVC, FEV 1 etc...) as set forth for clinical trial A above.
In addition to monitoring of lung function, blood eosinophil levels are also monitored and the incidence of activated eosinophils and eosinophil secretory proteins is determined. In individual studies, subjects are also subjected to lung lavage and the presence of eosinophils and platelets and their respective secretory products determined before and after exposure to allergen.

Series [3] relates to Guinea pigs. Description: Suppression of airways hyperreactivity, sensitised animals (immune complexes). The conditions noted are these: immune-complex treated animals, labelled platelets. The source says: Guinea pigs are anaesthetised and airways resistance and compliance recorded as described under example lb^l above. […] Platelets are isolated and labelled with ^lllindium prior to intravenous infusion. Platelet accumulation is monitored by external crystal detectors [c.f. Morley et al. […] Allergic reaction is initiated by i.v. injection of preformed immune complexes (bovine y-globulin/ anti-bovine y-globulin), using a dose that is scarcely sufficient to induce bronchospasm at the first injection. By repeating the dose at regular (10 min.) intervals, bronchospasm of progressively increasing amplitude is evidenced. This effect is paralleled by an incremental retention of platelets within the airway vasculature. Following the last dose of immune complexes, the dose-effect relationship to histamine is re-defined. In animals so treated, induction of airways hyperreactivity is consistently observed.

Series [4] concerns asthmatic subjects. Briefly: Clinical trial C: prophylactic/bronchodilator efficacy in asthma. The conditions noted are these: additional bronchodilator dosaging on attack. On the procedure:
Initial dosaging is of the order of from 1 to 100 mg, e.g. from 5 to 50 mg per day, administered once or in divided dosages 2 or 3x daily, for administration by inhalation and of the order of from 25 to 300 mg per day administered once or in divided dosages 2 or 3x daily, for oral administration, with subsequent reduction in appropriate cases to a maintainance dosage of 1 to 50 mg, e.g. from 5 to 25 mg, per day for inhalation or from 25 to 100 or 200 mg per day orally. Administration is suitably effected in divided dosages 2 or 3x daily. During the course of the trial subjects are monitored continually and all relevant parameters recorded including lung function, alterations in the incidence of activated eosinophils or the release of eosinophil products into the blood or bronchial fluids and/or changes in the function of platelets ex vivo and, in particular,-frequency and severity of asthma exacerbation or attack. Additional bronchodilator dosaging may be provided on the occasion of any such attack.

As to `COc1cc2c(cc1OC)[C@@H]1CN(C)CC[C@@H]1N=C2c1ccc(NC(C)=O)cc1` (racemic) [cis-6-(4-acetanilido)-8,9-dimethoxy-2-methyl-1,2,3,4,4a,10b-hexahydrobenzo[c][1,6]naphthyridin], the “tolerance (reported side-effects and side-reactions)” value in series [1] (all instances) is reported as “well tolerated”. In addition, the “results compared with therapy B (Theophylline 150 mg) or D (Salbutamol inhalation)” value in series [1] (higher dosage rates, e.g. of 50 mg or 100 mg and more) is reported as “approach or are at least comparable”. Further, the lung-function result in series [1] (oral 25 to 300 mg, compared with placebo) is on record as “marked improvement”. Further, the “bronchorestrictor response to allergen” value in series [2] (ca. 1 to 25 mg by inhalation or ca. 25 to 300 mg orally prior to allergen challenge) is recorded as “advance protection”. The eosinophilic response entry in series [2] (dosages as indicated prior to allergen challenge) is listed as “reduction”.

Turning to `COc1cc2c(cc1OC)[C@@H]1CN(C)CC[C@@H]1N=C2c1ccc(NC(C)=O)cc1` [COMPOUND, cis-6-(4-acetanilido)-8,9-dimethoxy-2-methyl-1,2,3,4,4a,10b-hexahydrobenzo[c][1,6]naphthyridin], the platelet accumulation result in series [3] is reported as “No inhibition”. Further, the “results employing COMPOUND at exacerbation or attack” value in series [4] is “symptomatic efficacy”.

The values above are taken from patent EP0247971A2, “Novel pharmaceutical compositions comprising and use of cis-6-(4-acetanilido)-8,9-dimethoxy-2-methyl-1,2,3,4,4a,10b-hexahydrobenzo[c][1,6]naphthyridin” (SANDOZ AG, priority 1986, dated 1987).
